Source: ChEMBL document CHEMBL4842343, “1,10-Seco-Eudesmane sesquiterpenoids as a new type of anti-neuroinflammatory agents by suppressing TLR4/NF-κB/MAPK pathways” (Eur J Med Chem, 2021)
Active and inactive are the calls of the source. No cut-off for these calls is given here.

What was measured:
[1] = Inhibition of LPS-induced NO production in mouse BV-2 cells incubated for 24 hrs by Griess reagent based assay; type: functional, cell-based; conditions: Mus musculus, BV-2, 24 h; read-out: EC50
[2] = test system: BV-2; experiment: Cytotoxicity against LPS-stimulated mouse BV-2 cells assessed as reduction in cell viability at 10 uM measured after 24 hrs by MTT assay relative to control; type: cell-based; conditions: bv-2, 24 h
[3] = Potency index, ratio of OABC EC50 to test compound EC50 for inhibition of LPS-induced NO production in mouse BV-2 cells incubated for 24 hrs by Griess reagent based assay; type: functional
[4] = test system: BV-2; experiment: Inhibition of TNF-alpha production in mouse BV-2 cells at 10 uM measured after 24 hrs by ELISA; type: functional, cell-based
[5] = test system: BV-2; experiment: Inhibition of PGE2 production in mouse BV-2 cells at 10 uM measured after 24 hrs by ELISA; type: functional, cell-based
[6] = test system: BV-2; experiment: Inhibition of TNF-alpha production in LPS stimulated mouse BV-2 cells measured after 24 hrs by ELISA; type: functional, cell-based; conditions: dose 1-10 µM
[7] = test system: BV-2; experiment: Inhibition of PGE2 production in LPS- stimulated mouse BV-2 cells measured after 24 hrs by ELISA; type: functional, cell-based; conditions: dose 1-10 µM
[8] = Inhibition of iNOS expression in mouse BV-2 cells at 10 uM measured after 24 hrs by western blot analysis relative to control; type: functional
[9] = test system: BV-2; experiment: Inhibition of iNOS expression in LPS-stimulated mouse BV-2 cells measured after 24 hrs by western blot analysis; type: functional, cell-based; conditions: dose 1-10 µM
[10] = Inhibition of iNOS expression in LPS-stimulated mouse BV-2 cells at 10 uM measured after 24 hrs by western blot analysis relative to control; type: functional
[11] = test system: BV-2; experiment: Inhibition of COX-1 expression in LPS-stimulated mouse BV-2 cells at 1 to 10 uM measured after 24 hrs by western blot analysis; type: functional, cell-based; conditions: dose 1-10 µM
[12] = test system: BV-2; experiment: Inhibition of COX-2 expression in LPS-stimulated mouse BV-2 cells measured after 24 hrs by western blot analysis; type: functional, cell-based
[13] = test system: BV-2; experiment: Inhibition of COX-1 expression in mouse BV-2 cells at 10 uM measured after 24 hrs by western blot analysis; type: functional, cell-based
[14] = test system: BV-2; experiment: Inhibition of COX-2 expression in mouse BV-2 cells at 10 uM measured after 24 hrs by western blot analysis; type: functional, cell-based
[15] = Potency indes, ratio of OABC to test compound for Inhibition of iNOS expression in LPS-stimulated mouse BV-2 cells at 10 uM measured after 24 hrs by western blot analysis; type: functional
[16] = test system: BV-2; experiment: Potency indes, ratio of OABC to test compound for inhibition of COX-2 expression in LPS-stimulated mouse BV-2 cells at 10 uM measured after 24 hrs by western blot analysis; type: functional
[17] = test system: BV-2; experiment: Inhibition of NF-kappaB p65 translocation in LPS-stimulated mouse BV-2 cells assessed as distribution of NF-kappaB p65 in nucleus and cytoplasm at 3 uM pretreated for 1 hr followed by LPS stimulation measured after 24 hrs by DAPI staining based immunofluorescence assay; type: cell-based; conditions: time 25.0 hrs
[18] = test system: BV-2; experiment: Inhibition of TLR4/NF-kappaB signalling pathway in LPS- stimulated mouse BV-2 cells assessed as reduction in IRAK1 expression measured after 24 hrs by western blot analysis; type: cell-based; conditions: dose 0.3-10 µM
[19] = test system: BV-2; experiment: Inhibition of TLR4/NF-kappaB signalling pathway in LPS- stimulated mouse BV-2 cells assessed as reduction in MyD88 expression at 0.3 to 10 uM measured after 24 hrs by western blot analysis; type: cell-based; conditions: dose 0.3-10 µM
[20] = test system: BV-2; experiment: Inhibition of TLR4/NF-kappaB signalling pathway in mouse BV-2 cells assessed as increase in CD14 cell surface expression at 10 uM pretreated for 1 hr and measured after 24 hrs by flow cytometry analysis (Rvb= 3.8%); type: cell-based; parameters: scale not given: the % may be the effect or the level left; conditions: time 25.0 hrs
[21] = test system: BV-2; experiment: Inhibition of TLR4/NF-kappaB signalling pathway in LPS-stimulated mouse BV-2 cells assessed as decrease in CD14 cell surface expression at 10 uM pretreated for 1 hr followed by LPS stimulation and measured after 24 hrs by […] (reference value: 27.2%); type: cell-based; parameters: scale not given: the % may be the effect or the level left; conditions: time 25.0 hrs
[22] = target: MAP kinase p38 (Mus musculus) (UniProt P47811+O08911+Q9WUI1+Q9Z1B7); experiment: Inhibition of p38 MAPK phosphorylation in LPS-stimulated mouse BV-2 cells measured after 2 hrs by western blot analysis; type: cell-based; conditions: dose 0.3-10 µM
[23] = test system: BV-2; experiment: Inhibition of ERK phosphorylation in LPS-stimulated mouse BV-2 cells at 0.3 to 10 uM measured after 2 hrs by western blot analysis; type: cell-based; conditions: dose 0.3-10 µM
[24] = test system: BV-2; experiment: Antineuroinflammatory activity in LPS- stimulated mouse BV-2 cells assessed as upregulation of HO-1 expression measured after 24 hrs by immunoblotting analysis; type: functional, cell-based; conditions: dose 1-10 µM
[25] = test system: BV-2; experiment: Antineuroinflammatory activity in LPS- stimulated mouse BV-2 cells assessed as fold increase in HO-1 expression at 10 uM measured after 24 hrs by immunoblotting analysis relative to control; type: functional
[26] = test system: BV-2; experiment: Antineuroinflammatory activity in LPS- stimulated mouse BV-2 cells assessed as conversion of microglia from M1 to M2 phenotype macrophages by measuring arginase-1 level at 10 uM measured after 24 hrs by ELISA; type: functional, cell-based
[27] = test system: BV-2; experiment: Antineuroinflammatory activity in LPS- stimulated mouse BV-2 cells assessed as conversion of microglia from M1 to M2 phenotype macrophages by measuring IL-10 production at 1 uM measured after 24 hrs by ELISA; type: functional, cell-based
[28] = Effective permeability of the compound in PBS/EtOH buffer (9:1) at […] after 10 hrs by HPLC-UV based PAMPA-BBB assay; type: ADME; conditions: read-out: permeability

In the case of `C=C1C(=O)O[C@@H]2CC(CBr)=C([C@@H](C)CCCOC(C)=O)[C@@H](OC(C)=O)[C@H]12`, the EC50 [1] is reported as 700 nM, the Activity [2] is reported as 90.6% and the “Ratio EC50” value [3] is reported as 6. The inhibition [4] was “inactive”, the inhibition [5] was “inactive” and the inhibition [6] was “Dose-Dependent Effect”. For the same compound, the inhibition [7] was “Dose-Dependent Effect”, the inhibition at 10 µM [8] was 12.2% and the inhibition [9] was “Dose-Dependent Effect”. The inhibition at 10 µM [10] was 11.2%, the inhibition [11] was “inactive” and the inhibition [12] was “Dose-Dependent Effect”. The inhibition [13] was “inactive”, the inhibition [14] was “Active” and the “fold change (FC)” value [15] was 4. The “fold change (FC)” value [16] was 4, the inhibition [17] was “Active” and the inhibition [18] was “Dose-Dependent Effect”. For the same compound, the inhibition [19] was “inactive”, the Activity [20] was 10.6% and the Activity [21] was 9.9%. For the same compound, the Activity [22] was “Dose-Dependent Effect”, the inhibition [23] was “inactive” and the Activity [24] was “Dose-Dependent Effect”. The “fold change (FC)” value [25] was 2.8, the Activity [26] was “Active” and the Activity [27] was “Active”. For the same compound, the Papp at 10 h [28] was 6.5 ×10⁻⁶ cm/s.
